Experimental data taken from ChEMBL document CHEMBL5120867, “Hernandezine Regulates Proliferation and Autophagy-Induced Apoptosis in Melanoma Cells” (J Nat Prod, 2022).

Assays:
Assay type in all cases: functional
[1] = test system: B16; experiment: Induction of cell cycle arrest in mouse B16 cells assessed as accumulation at S phase incubated for 24 hrs by PI staining based flow cytometry analysis (reference value: 42.53 %)
[2] = test system: A-375; experiment: Induction of cell cycle arrest in human A-375 cells assessed as accumulation at S phase incubated for 24 hrs by PI staining based flow cytometry analysis (reference value: 34.44 %)
[3] = test system: A-375; experiment: Induction of cell cycle arrest in human A-375 cells assessed as accumulation at G0/G1 phase incubated for 24 hrs by PI staining based flow cytometry analysis (reference value: 56.69 %)
[4] = test system: B16; experiment: Induction of cell cycle arrest in mouse B16 cells assessed as accumulation at G2/M phase incubated for 24 hrs by PI staining based flow cytometry analysis (reference value: 0.88 %)
[5] = test system: B16; experiment: Induction of cell cycle arrest in mouse B16 cells assessed as accumulation at G0/G1 phase incubated for 24 hrs by PI staining based flow cytometry analysis (reference value: 56.59 %)
[6] = test system: A-375; experiment: Induction of cell cycle arrest in human A-375 cells assessed as accumulation at G2/M phase incubated for 24 hrs by PI staining based flow cytometry analysis (reference value: 8.87 %)

Compound: N#C/C(=C\c1ccc(O)c(O)c1)C(=O)NCc1ccccc1
- Activity [1]: 15.11%
- Activity [2]: 31.61%
- Activity [3]: 61.48%
- Activity [4]: 2.72%
- Activity [5]: 82.17%
- Activity [6]: 6.92%
